The values below come from paper PMC6429214, “Design, Synthesis and Biological Evaluation of Isoxazole-Based CK1 Inhibitors Modified with Chiral Pyrrolidine Scaffolds” (Molecules, 2019).

Broadly, the IC50 is the midpoint of a concentration-inhibition curve. A higher IC50 goes with weaker potency. The term viability denotes a per cent measure of how many cells are alive, often set against a control. A high value points to less harm to the cells. The EC50 is the midpoint of the concentration-response curve. Low readings indicate an effect from little substance, high ones a need for much substance.

The target in data set [1] is T1, human CK1δ transcription variant 1 (Homo sapiens, UniProt P48730).
T1 construct: made in house; own knowledge
The data set can be described thus: in-vitro kinase assay CK1δ. The format is biochemical. Conditions: 10 µM ATP, mean ± SD, n = 3. An excerpt: Human CK1δ transcription variant 1 (CK1δ TV1_NM_001893.4) has been amplified from the cDNA obtained from HT1080 cell line, using CK1δ_forward-primer: 5′-GGATCCATGGAGCTGAGAGTCGGGAACAG-3′ and CK1δ_reverse primer: 5′-GGATCCTCATCGGTGCACGACAGACTGA-3′. The CK1δ DNA construct was cloned into pSC-A cloning vector (Agilent technologies, Munich, Germany) with BamHI enzyme, to generate plasmids pGEX6-P3-GST-CK1δ TV1 (FP1417). Overexpression and purification of GST-CK1δ TV1 protein has been performed as described before.
In vitro kinase assays have been performed to both screen, as well as to calculate IC50 values of the compounds for CK1δ and ε. Each reaction was carried out using 2 μCi ^32P-γ-ATP in kinase buffer containing 25 mM Tris-HCl (pH = 7.5), 10 mM MgCl2, 100 µM EDTA, and 10 µM ATP. […] Recombinant human CK1δ transcription variant 1 (expressed and purified as GST fusion protein as described earlier) and human GST-CK1ε (PV3500; Invitrogen) were used as sources of enzyme, while α-casein (C6780; Sigma-Aldrich) was used as substrate. Kinase reactions were incubated for 30 min at 30 °C and then stopped with loading dye (50 mM Tris-HCl (pH = 6.8), 5% (v/v) β-mercaptoethanol (MSH), 10% (v/v) glycerol, 2% (w/v) sodium dodecyl sulfate (SDS), 0.1% (w/v) bromphenol blue). Subsequently, reactions were separated by sodium dodecyl sulfate polyacrylamide gel electrophoresis (SDS-PAGE) and phosphorylated protein bands were visualized on dried gels by autoradiography. The phosphorylated substrate protein bands were excised, and phosphorylation was quantified by Cherenkov counting. Dose-response analyses and calculation of IC50 values were carried out using GraphPad Prism 6 statistical software (San Diego, CA, USA).

The next data set concerns the target T2, INS-R (Homo sapiens, UniProt P06213).
T2 construct: purchased ProQinase
The data set can be described thus: 33PanQinase panel. The format is biochemical. Conditions: read-out: Residual Activity (%). As for the experimental part: (§1) Figure 5 Dendrogram representation of the selectivity profile of 29d at a concentration of 1 μM in a panel of 320 wild-type kinases (ProQinase, Freiburg, Germany). The residual kinase activity was determined compared to DMSO control. Images were generated using TREEspot Software Tool, DISCOVERX CORPORATION 2010. […]
(§2) Table S2. Selectivity profile of compound 29d. The inhibitor has been screened at a concentration of 1 µM over a panel of 320 wild-type protein kinases by ProQinase GmbH (Freiburg, Germany) using an activity-based radiometric 33PanQinase® assay. Results are presented as percentage of residual kinase activity relative to […]
(§3) control. The final DMSO concentration was 1 % in each reaction-mix. Classification of protein kinase families refers to Manning et al. (Manning, G.; Whyte, D. B.; Martinez, R.; Hunter, T.; Sudarsanam, S. The Protein Kinase Complement of the Human Genome. Science 2002, 298, 1912–1934): AGC = containing PKA, PKG, PKC families; […] = containing Cdk, MAPK, GSK3, CLK families; STE = homologs of yeast sterile 7, sterile 11, sterile 20 kinases; TK = tyrosine kinase; TKL = tyrosine kinase-like.
(§4) Kinase name Kinase family Residual Activity (%)

The target of the next data set is T3, MET (Homo sapiens, UniProt P08581).
T3 construct: purchased ProQinase
T3 sequence (P08581 25-1390): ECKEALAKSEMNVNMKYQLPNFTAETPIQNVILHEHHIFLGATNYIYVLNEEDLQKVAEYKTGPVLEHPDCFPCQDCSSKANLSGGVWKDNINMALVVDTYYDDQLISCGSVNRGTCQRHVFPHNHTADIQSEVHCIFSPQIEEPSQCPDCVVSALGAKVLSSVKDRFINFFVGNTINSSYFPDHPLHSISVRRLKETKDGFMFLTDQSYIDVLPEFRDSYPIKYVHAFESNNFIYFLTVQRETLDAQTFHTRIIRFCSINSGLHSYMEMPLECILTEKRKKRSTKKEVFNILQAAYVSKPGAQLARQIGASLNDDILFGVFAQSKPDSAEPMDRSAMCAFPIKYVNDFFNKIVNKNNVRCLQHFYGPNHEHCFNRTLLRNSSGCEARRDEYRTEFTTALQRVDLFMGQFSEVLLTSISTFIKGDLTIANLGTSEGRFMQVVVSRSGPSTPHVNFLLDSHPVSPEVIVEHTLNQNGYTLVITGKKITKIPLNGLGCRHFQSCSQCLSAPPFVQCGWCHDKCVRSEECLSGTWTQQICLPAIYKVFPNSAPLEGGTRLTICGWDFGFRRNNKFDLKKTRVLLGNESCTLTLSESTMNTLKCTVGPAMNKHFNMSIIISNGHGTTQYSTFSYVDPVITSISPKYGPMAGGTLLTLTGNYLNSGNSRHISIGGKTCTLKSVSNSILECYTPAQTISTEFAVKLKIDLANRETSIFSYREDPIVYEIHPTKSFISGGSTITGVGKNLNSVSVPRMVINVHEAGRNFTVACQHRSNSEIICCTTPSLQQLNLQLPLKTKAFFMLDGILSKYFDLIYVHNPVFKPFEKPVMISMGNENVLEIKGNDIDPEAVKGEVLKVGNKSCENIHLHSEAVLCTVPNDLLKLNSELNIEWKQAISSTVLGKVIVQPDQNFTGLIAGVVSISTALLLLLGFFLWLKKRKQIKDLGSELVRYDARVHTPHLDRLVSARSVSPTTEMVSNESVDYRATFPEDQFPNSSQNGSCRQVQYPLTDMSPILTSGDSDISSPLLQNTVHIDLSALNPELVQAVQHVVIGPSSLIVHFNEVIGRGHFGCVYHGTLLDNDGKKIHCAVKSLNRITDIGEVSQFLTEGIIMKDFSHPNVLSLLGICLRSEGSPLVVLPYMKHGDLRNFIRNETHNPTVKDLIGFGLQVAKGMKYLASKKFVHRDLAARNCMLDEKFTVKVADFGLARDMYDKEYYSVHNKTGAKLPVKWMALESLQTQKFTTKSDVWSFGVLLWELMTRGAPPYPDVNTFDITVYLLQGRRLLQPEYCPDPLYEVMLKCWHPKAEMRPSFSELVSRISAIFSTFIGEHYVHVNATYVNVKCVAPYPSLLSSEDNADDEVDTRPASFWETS
The data set can be described thus: 33PanQinase panel. Conditions: read-out: Residual Activity (%). The format is biochemical. On the procedure:
as §1, §2, §3, §4

The next data set has as its target T4, CK1-gamma1 (Homo sapiens, UniProt Q9HCP0).
T4 construct: purchased ProQinase
The data set can be described thus: 33PanQinase panel. The format is biochemical. The following applies: CK1-gamma1, 1 µM; read-out: Residual Activity (%). As for the experimental part:
as §1, §2, §3, §4

Another data set has as its target T5, NEK11 (Homo sapiens, UniProt Q8NG66).
T5 construct: purchased ProQinase
Nature of the data set: 33PanQinase panel. Conditions: NEK11, 1 µM; read-out: Residual Activity (%). The format is biochemical. On the procedure:
as §1, §2, §3, §4

In a further data set the target is T6, PRKX (Homo sapiens, UniProt P51817).
T6 construct: purchased ProQinase
T6 sequence (P51817 whole entry): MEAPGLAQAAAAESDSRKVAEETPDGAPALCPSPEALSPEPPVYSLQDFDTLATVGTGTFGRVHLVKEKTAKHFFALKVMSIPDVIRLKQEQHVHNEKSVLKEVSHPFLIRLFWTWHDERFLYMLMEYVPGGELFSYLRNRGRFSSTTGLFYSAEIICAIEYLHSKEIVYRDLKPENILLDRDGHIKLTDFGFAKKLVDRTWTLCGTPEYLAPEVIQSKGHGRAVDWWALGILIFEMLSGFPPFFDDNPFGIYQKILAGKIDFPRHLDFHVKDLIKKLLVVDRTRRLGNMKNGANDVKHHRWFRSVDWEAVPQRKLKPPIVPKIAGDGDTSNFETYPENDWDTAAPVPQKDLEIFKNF
The data set can be described thus: 33PanQinase panel. The format is biochemical. The following applies: read-out: Residual Activity (%). As for the experimental part:
as §1, §2, §3, §4

A short description of data set [2]: LC-MS of aqueous solutions with and without PEG. The following applies: LC-MS over 7 days, not in solutions without PEG. The format is physicochemical. An excerpt:
Since all analytical data for the originally employed inhibitors was consistent with the given structures, we postulate that the incorporation of an additional methylene group occurred via spontaneous Pictet-Spengler cyclization during crystallization. In line with this notion, PEG, which has been used in our soaking solutions, is known to generate formaldehyde traces that have been shown in the past to affect the derivatization of both, proteins and ligands. To further corroborate this hypothesis, we examined whether simple exposure of 29d/e to formaldehyde would give rise to the same Pictet-Spengler products 31a/b (Scheme 5). Indeed, when compounds 29d/e were treated with formaldehyde at room temperature 31a/b were formed readily and the obtained spectroscopic data was consistent with the predicted Pictet-Spengler products. In addition, aqueous solutions of 29d and 29e with and without PEG were analyzed by liquid chromatography-mass spectrometry (LC-MS) over a period of 7 days.
LC-MS was performed with a Bruker Esquire ~LC ion trap mass spectrometer (Bremen, Germany) in the positive ion mode (dry gas 9 L/min, nebulizer 35 psi, drying temperature 350 °C) after chromatographic separation using an Agilent 1100 HPLC system (Waldbronn, Germany) with a RP-8 column (Agilent Eclipse XDB-C8, 150 × 4.6 mm, 5 μm) and a 0.1% acetic acid/acetonitrile gradient.

Another data set deals with MCF-7 cells. Nature of the data set: MTT cell viability assay MCF-7. The format is cell-based, human. The following applies: Homo sapiens, MCF7, 48 h, mean ± SD. On the procedure:
The human colon adenocarcinoma cell line HT-29 was grown in McCoy’s 5A medium, whereas MCF7 cells were grown in DMEM medium. All media were supplemented with 10% fetal calf serum (FCS), 100 units/mL penicillin, 100 µg/mL streptomycin and 2 mM glutamine. All cells were grown at 37 °C in a humidified 5% carbon dioxide atmosphere.
In order to analyze the effects of selected inhibitors on the cell viability of HT-29 and MCF7 cells, MTT assays were performed. 1 × 10^4 cells/well were seeded in 96-well cell culture plates. After 24 h cells were treated with increasing concentrations of the indicated inhibitor compounds, with untreated and DMSO-treated cells as control. After an incubation period of 48 h, 10 µL of MTT solution (5 mg/mL in PBS) were added and cells were incubated for 4 h. MTT-containing medium was carefully removed and 100 µL acidic isopropanol (0.04 N HCl in isopropanol) per well were added. To dissolve formazan crystals, plates were shaken for 30 min on an orbital shaker in the dark. Finally, dissolved crystals were measured spectrophotometrically at 570 nm. All experiments were performed in triplicate with four technical replicates per assay. Results were normalized considering the mean optical density value of control wells as 100%. GraphPad Prism 6 software (San Diego, CA, USA) was used to calculate EC50 values.

T4 sequence (Q9HCP0 whole entry): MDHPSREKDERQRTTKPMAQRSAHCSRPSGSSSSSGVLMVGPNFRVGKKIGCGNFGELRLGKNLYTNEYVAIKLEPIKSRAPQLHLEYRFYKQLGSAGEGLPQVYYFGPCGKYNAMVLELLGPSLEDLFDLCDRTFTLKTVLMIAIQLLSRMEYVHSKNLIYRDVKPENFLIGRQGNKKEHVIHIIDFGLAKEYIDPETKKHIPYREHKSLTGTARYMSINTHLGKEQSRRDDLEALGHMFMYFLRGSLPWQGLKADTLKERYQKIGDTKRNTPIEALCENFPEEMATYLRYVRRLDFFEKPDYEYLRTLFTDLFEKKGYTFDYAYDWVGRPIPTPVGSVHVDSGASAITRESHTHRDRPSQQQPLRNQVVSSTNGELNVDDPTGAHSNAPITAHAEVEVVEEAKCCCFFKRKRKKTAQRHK
T2 sequence (P06213 980-1382 limits assumed): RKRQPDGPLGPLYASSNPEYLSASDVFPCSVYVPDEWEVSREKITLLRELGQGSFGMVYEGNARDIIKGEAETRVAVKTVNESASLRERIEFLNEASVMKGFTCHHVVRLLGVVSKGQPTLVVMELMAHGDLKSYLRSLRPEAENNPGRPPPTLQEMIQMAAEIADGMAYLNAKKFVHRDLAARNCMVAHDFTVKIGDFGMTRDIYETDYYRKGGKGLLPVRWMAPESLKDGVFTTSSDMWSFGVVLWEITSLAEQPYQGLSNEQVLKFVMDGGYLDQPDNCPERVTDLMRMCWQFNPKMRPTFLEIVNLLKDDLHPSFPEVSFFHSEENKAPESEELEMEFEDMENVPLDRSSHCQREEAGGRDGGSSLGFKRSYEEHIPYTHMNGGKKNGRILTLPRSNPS
T5 sequence (Q8NG66 whole entry): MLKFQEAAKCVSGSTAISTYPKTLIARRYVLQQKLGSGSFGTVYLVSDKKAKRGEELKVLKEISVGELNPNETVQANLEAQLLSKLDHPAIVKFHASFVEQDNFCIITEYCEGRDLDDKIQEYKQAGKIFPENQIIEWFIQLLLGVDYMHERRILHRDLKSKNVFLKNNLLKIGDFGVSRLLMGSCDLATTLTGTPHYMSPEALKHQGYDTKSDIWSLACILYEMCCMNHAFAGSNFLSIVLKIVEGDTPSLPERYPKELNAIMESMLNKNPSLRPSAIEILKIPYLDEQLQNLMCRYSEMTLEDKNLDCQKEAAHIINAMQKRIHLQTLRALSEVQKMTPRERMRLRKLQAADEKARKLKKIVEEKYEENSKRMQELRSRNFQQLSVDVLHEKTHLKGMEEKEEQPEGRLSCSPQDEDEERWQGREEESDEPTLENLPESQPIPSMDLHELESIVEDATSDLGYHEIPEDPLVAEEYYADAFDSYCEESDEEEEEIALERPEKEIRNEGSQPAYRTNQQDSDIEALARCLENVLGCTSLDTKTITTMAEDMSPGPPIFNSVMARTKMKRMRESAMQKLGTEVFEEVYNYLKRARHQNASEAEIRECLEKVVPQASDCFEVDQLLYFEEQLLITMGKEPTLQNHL

Consider `COc1ccc(-c2cc(C(=O)Nc3cc(-c4c(-c5ccc(F)cc5)noc4C(C)C)ccn3)n(CC3NCC(O)C3O)c2)cc1` (stereo not drawn) [29d], for which the IC50 in data set [1] is 0.038 ± 0.003 µM. The remaining activity at 10 µM in data set [1] (10 µM compound, read-out: CK1δ Residual Activity [%] at 10 µM ± SD) is 2.9 ± 0.3%. Further, the remaining activity at 1 µM at INS-R worked out at 101%; on MET, 89%; on CK1-gamma1, 88%; on NEK11, 100%; at PRKX, 92%. In addition, the “formation of Pictet-Spengler products in aqueous solution with PEG” value in data set [2] is “significant product formation”. The compound further registered a viability at 5 µM in the data set with MCF-7 cells (5 µM) of 100 ± 16%. For the same compound, in the data set with MCF-7 cells (10 µM), the viability at 10 µM turned out to be 76 ± 19%. Besides, the viability at 20 µM with MCF-7 cells (20 µM) is 5.6 ± 1.5%. Also, the EC50 with MCF-7 cells came to 10 ± 2 µM.
